Results reported in patent US12473304B2, “Heterocyclic PAD4 inhibitors” (BRISTOL-MYERS SQUIBB COMPANY, priority 2020, dated 2025).

Each molecule was assayed against human PAD4 (hPAD4) (Homo sapiens (Human), UniProt Q9UM07) (assay: RFMS Human PAD4 Functional Assay 1). Settings: RFMS assay 1; 5 nM hPAD4, 250 μM BAEE substrate, 50 μM calcium, 37° C.
Assay type: biochemical
Summary of the method: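 Recombinant hPAD4 (5 nM) was preincubated with compound (top 50 μM, 0.5% DMSO) for 30 min at 37 °C, then reacted with 250 μM BAEE for 90 min at 37 °C in pH 7.5 HEPES buffer with 50 μM calcium and 5 μM TPEN. Product was derivatized with phenyl glyoxal and quantified by RapidFire MS.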

human PAD4 (hPAD4), sequence (Q9UM07 whole entry): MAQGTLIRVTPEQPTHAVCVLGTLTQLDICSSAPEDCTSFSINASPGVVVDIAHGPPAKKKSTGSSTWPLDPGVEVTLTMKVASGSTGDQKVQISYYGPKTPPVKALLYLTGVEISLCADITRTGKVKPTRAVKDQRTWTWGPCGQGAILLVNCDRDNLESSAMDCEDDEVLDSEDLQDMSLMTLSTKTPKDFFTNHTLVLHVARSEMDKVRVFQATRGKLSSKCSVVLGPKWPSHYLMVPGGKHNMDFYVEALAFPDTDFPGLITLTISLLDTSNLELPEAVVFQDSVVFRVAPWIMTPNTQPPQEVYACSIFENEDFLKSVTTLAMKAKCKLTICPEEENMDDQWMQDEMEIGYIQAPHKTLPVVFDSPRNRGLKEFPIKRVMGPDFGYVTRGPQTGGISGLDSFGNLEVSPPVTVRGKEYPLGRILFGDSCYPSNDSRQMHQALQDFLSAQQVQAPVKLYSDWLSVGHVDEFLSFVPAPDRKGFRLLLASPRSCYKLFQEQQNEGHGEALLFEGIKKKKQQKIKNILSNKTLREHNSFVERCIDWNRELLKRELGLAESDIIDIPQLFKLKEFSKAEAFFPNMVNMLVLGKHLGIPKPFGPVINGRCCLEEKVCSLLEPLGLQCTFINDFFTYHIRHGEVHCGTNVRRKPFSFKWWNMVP

| IC50 [nM] | SMILES |
| --- | --- |
| 10 | COCC(=O)N1CCC(c2cccc3cc(-c4nn5cc(C(=O)N6CC7CCC6[C@@H]7N)ccc5c4C)n(CC4CC4)c23)CC1 (stereo partly drawn) [Example 453, 1-(4-(2-(6-((7R)-7-amino-2-azabicyclo[2.2.1]heptane-2-carbonyl)-3-methylpyrazolo[1,5-a]pyridin-2-yl)-1-(cyclopropylmethyl)-1H-indol-7-yl)piperidin-1-yl)-2-methoxyethan-1-one] |
| 550 | CO[C@@H](C)C(=O)N1CCC(c2cccc3cc(-c4nn5cc(C(=O)N6CCC[C@@H](N)C6)ccc5c4C)n(CC4CC4)c23)CC1 [Example 454, (S)-1-(4-(2-(6-((R)-3-aminopiperidine-1-carbonyl)-3-methylpyrazolo[1,5-a]pyridin-2-yl)-1-(cyclopropylmethyl)-1H-indol-7-yl)piperidin-1-yl)-2-methoxypropan-1-one] |
| 270 | COCC(=O)N1CCC(c2cccc3cc(-c4nn5cc(C(=O)N6CCC[C@@H](N)C6)ccc5c4C)n(CC4CC4)c23)CC1 [Example 455, (R)-1-(4-(2-(6-(3-aminopiperidine-1-carbonyl)-3-methylpyrazolo[1,5-a]pyridin-2-yl)-1-(cyclopropylmethyl)-1H-indol-7-yl)piperidin-1-yl)-2-methoxyethan-1-one] |
| 140 | CO[C@@H](C)C(=O)N1CCC(c2cccc3cc(-c4nn5cc(C(=O)N6C[C@H](N)C[C@@H](F)C6)ccc5c4C)n(CC4CC4)c23)CC1 [Example 459, (S)-1-(4-(2-(6-((3R,5R)-3-amino-5-fluoropiperidine-1-carbonyl)-3-methylpyrazolo[1,5-a]pyridin-2-yl)-1-(cyclopropylmethyl)-1H-indol-7-yl)piperidin-1-yl)-2-methoxypropan-1-one] |
| 70 | CO[C@H](C)C(=O)N1CCC(c2cccc3cc(-c4nn5cc(C(=O)N6CCC[C@@H](N)C6)ccc5c4C)n(CC4CC4)c23)CC1 [Example 460, (R)-1-(4-(2-(6-((R)-3-aminopiperidine-1-carbonyl)-3-methylpyrazolo[1,5-a]pyridin-2-yl)-1-(cyclopropylmethyl)-1H-indol-7-yl)piperidin-1-yl)-2-methoxypropan-1-one] |
| 80 | CO[C@H](C)C(=O)N1CCC(c2cccc3cc(-c4nn5cc(C(=O)N6C[C@H](N)C[C@@H](F)C6)ccc5c4C)n(CC4CC4)c23)CC1 [Example 461, (R)-1-(4-(2-(6-((3R,5R)-3-amino-5-fluoropiperidine-1-carbonyl)-3-methylpyrazolo[1,5-a]pyridin-2-yl)-1-(cyclopropylmethyl)-1H-indol-7-yl)piperidin-1-yl)-2-methoxypropan-1-one] |
| 180 | Cc1c(-c2cc3cccc(C4CCN(C(=O)c5cccs5)CC4)c3n2CC2CC2)nn2cc(C(=O)N3CCC[C@@H](N)C3)ccc12 [Example 464, (R)-(3-aminopiperidin-1-yl)(2-(1-(cyclopropylmethyl)-7-(1-(thiophene-2-carbonyl)piperidin-4-yl)-1H-indol-2-yl)-3-methylpyrazolo[1,5-a]pyridin-6-yl)methanone] |
| 100 | COC(=O)N1CCC(c2cccc3cc(-c4nn5cc(C(=O)N6CCC[C@@H](N)C6)ccc5c4C)n(CC4CC4)c23)CC1 [Example 468, Methyl (R)-4-(2-(6-(3-aminopiperidine-1-carbonyl)-3-methylpyrazolo[1,5-a]pyridin-2-yl)-1-(cyclopropylmethyl)-1H-indol-7-yl)piperidine-1-carboxylate] |
| 180 | COC(=O)N1CCC(c2cccc3cc(-c4nn5cc(C(=O)N6C[C@H](N)C[C@@H](F)C6)ccc5c4C)n(CC4CC4)c23)CC1 [Example 469, Methyl 4-(2-(6-((3R,5R)-3-amino-5-fluoropiperidine-1-carbonyl)-3-methylpyrazolo[1,5-a]pyridin-2-yl)-1-(cyclopropylmethyl)-1H-indol-7-yl)piperidine-1-carboxylate] |
| 10 | COC(=O)N1CCC(c2cccc3cc(-c4nn5cc(C(=O)N6CC7CCC6[C@@H]7N)ccc5c4C)n(CC4CC4)c23)CC1 (stereo partly drawn) [Example 470, Methyl 4-(2-(6-((7R)-7-amino-2-azabicyclo[2.2.1]heptane-2-carbonyl)-3-methylpyrazolo[1,5-a]pyridin-2-yl)-1-(cyclopropylmethyl)-1H-indol-7-yl)piperidine-1-carboxylate] |
| 90 | Cc1c(-c2cc3cccc(C4CCN(C(=O)[C@@H](C)O)CC4)c3n2CC2CC2)nn2cc(C(=O)N3CCC[C@@H](N)C3)ccc12 [Example 471, (R)-1-(4-(2-(6-((R)-3-aminopiperidine-1-carbonyl)-3-methylpyrazolo[1,5-a]pyridin-2-yl)-1-(cyclopropylmethyl)-1H-indol-7-yl)piperidin-1-yl)-2-hydroxypropan-1-one] |
| 60 | Cc1c(-c2cc3cccc(C4CCN(C(=O)[C@@H](C)O)CC4)c3n2CC2CC2)nn2cc(C(=O)N3C[C@H](N)C[C@@H](F)C3)ccc12 [Example 472, (R)-1-(4-(2-(6-((3R,5R)-3-amino-5-fluoropiperidine-1-carbonyl)-3-methylpyrazolo[1,5-a]pyridin-2-yl)-1-(cyclopropylmethyl)-1H-indol-7-yl)piperidin-1-yl)-2-hydroxypropan-1-one] |
| 3 | Cc1c(-c2cc3cccc(C4CCN(C(=O)[C@@H](C)O)CC4)c3n2CC2CC2)nn2cc(C(=O)N3CC4CCC3[C@@H]4N)ccc12 (stereo partly drawn) [Example 473, (2R)-1-(4-(2-(6-((7R)-7-Amino-2-azabicyclo[2.2.1]heptane-2-carbonyl)-3-methylpyrazolo[1,5-a]pyridin-2-yl)-1-(cyclopropylmethyl)-1H-indol-7-yl)piperidin-1-yl)-2-hydroxypropan-1-one] |
| 70 | Cc1c(-c2cc3cccc(C4CCN(C(=O)c5cccs5)CC4)c3n2CC2CC2)nn2cc(C(=O)N3C[C@H](N)C[C@@H](F)C3)ccc12 [Example 474, ((3R,5R)-3-Amino-5-fluoropiperidin-1-yl)(2-(1-(cyclopropylmethyl)-7-(1-(thiophene-2-carbonyl)piperidin-4-yl)-1H-indol-2-yl)-3-methylpyrazolo[1,5-a]pyridin-6-yl)methanone] |
| 20 | Cc1c(-c2cc3cccc(C4CCN(C(=O)c5cccs5)CC4)c3n2CC2CC2)nn2cc(C(=O)N3CC4CCC3[C@@H]4N)ccc12 (stereo partly drawn) [Example 475, (4-(2-(6-((7R)-7-Amino-2-azabicyclo[2.2.1]heptane-2-carbonyl)-3-methylpyrazolo[1,5-a]pyridin-2-yl)-1-(cyclopropylmethyl)-1H-indol-7-yl)piperidin-1-yl)(thiophen-2-yl)methanone] |
| 20 | CC(=O)N1CCC(c2cccc3cc(-c4nn5cc(C(=O)N6CC7CCC6[C@@H]7N)ccc5c4C)n(CC4CC4)c23)CC1 (stereo partly drawn) [Example 477, 1-(4-(2-(6-((7R)-7-Amino-2-azabicyclo[2.2.1]heptane-2-carbonyl)-3-methylpyrazolo[1,5-a]pyridin-2-yl)-1-(cyclopropylmethyl)-1H-indol-7-yl)piperidin-1-yl)ethan-1-one] |
| 130 | COCC(=O)N1CCC(c2cccc3cc(-c4nn5cc(C(=O)N6C[C@H](N)C[C@@H](F)C6)ccc5c4C)n(CC4CC4)c23)CC1 [Example 478, 1-(4-(2-(6-((3R,5R)-3-Amino-5-fluoropiperidine-1-carbonyl)-3-methylpyrazolo[1,5-a]pyridin-2-yl)-1-(cyclopropylmethyl)-1H-indol-7-yl)piperidin-1-yl)-2-methoxyethan-1-one] |
| 390 | CC(=O)N1CCC(c2cccc3cc(-c4nn5cc(C(=O)N6CCC[C@@H](N)C6)ccc5c4C)n(CC4CC4)c23)CC1 [Example 479, (R)-1-(4-(2-(6-(3-Aminopiperidine-1-carbonyl)-3-methylpyrazolo[1,5-a]pyridin-2-yl)-1-(cyclopropylmethyl)-1H-indol-7-yl)piperidin-1-yl)ethan-1-one] |
| 140 | COCC(=O)N1CCC(c2cc(F)cc3cc(-c4nn5cc(C(=O)N6CCC[C@@H](N)C6)cc(OC)c5c4C)n(CC4CC4)c23)CC1 [Example 480, (R)-1-(4-(2-(6-(3-aminopiperidine-1-carbonyl)-4-methoxy-3-methylpyrazolo[1,5-a]pyridin-2-yl)-1-(cyclopropylmethyl)-5-fluoro-1H-indol-7-yl)piperidin-1-yl)-2-Methoxyethan-1-one] |
| 120 | COCC(=O)N1CCC(c2cc(F)cc3cc(-c4nn5cc(C(=O)N6C[C@H](N)C[C@@H](F)C6)cc(OC)c5c4C)n(CC4CC4)c23)CC1 [Example 481, 1-(4-(2-(6-((3R,5R)-3-Amino-5-fluoropiperidine-1-carbonyl)-4-methoxy-3-methylpyrazolo[1,5-a]pyridin-2-yl)-1-(cyclopropylmethyl)-5-fluoro-1H-indol-7-yl)piperidin-1-yl)-2-methoxyethan-1-one] |
| 60 | COc1cc(C(=O)N2C[C@H](N)C[C@@H](F)C2)cn2nc(-c3cc4cc(F)cc(C5CCN(C(C)=O)CC5)c4n3CC3CC3)c(C)c12 [Example 482, 1-(4-(2-(6-((3R,5R)-3-Amino-5-fluoropiperidine-1-carbonyl)-4-methoxy-3-methylpyrazolo[1,5-a]pyridin-2-yl)-1-(cyclopropylmethyl)-5-fluoro-1H-indol-7-yl)piperidin-1-yl)ethan-1-one] |
| 150 | COc1cc(C(=O)N2CCC[C@@H](N)C2)cn2nc(-c3cc4cc(F)cc(C5CCN(C(C)=O)CC5)c4n3CC3CC3)c(C)c12 [Example 483, (R)-1-(4-(2-(6-(3-Aminopiperidine-1-carbonyl)-4-methoxy-3-methylpyrazolo[1,5-a]pyridin-2-yl)-1-(cyclopropylmethyl)-5-fluoro-1H-indol-7-yl)piperidin-1-yl)ethan-1-one] |
| 150 | Cc1c(-c2cc3cc(F)cc(C4CCN(C(=O)[C@H]5CC[C@H](O)CC5)CC4)c3n2CC2CC2)nn2cc(C(=O)N3CCC[C@@H](N)C3)ccc12 [Example 484, ((R)-3-Aminopiperidin-1-yl)(2-(1-(cyclopropylmethyl)-5-fluoro-7-(1-((1r,4r)-4-hydroxycyclohexane-1-carbonyl)piperidin-4-yl)-1H-indol-2-yl)-3-methylpyrazolo[1,5-a]pyridin-6-yl)methanone] |
